Measured values: patent US20130199313A1, “METHOD FOR EVALUATING THE SOLUBILITY OF A CRYSTALLINE SUBSTANCE IN A POLYMER” (Abbott GmbH & Co, KGW, priority 2010, published 2013)

How the values were obtained:
[1] = polymer PVP K-12; cited from earlier work
[2] = Annealing/DSC method for solubility of a crystalline substance in a polymer; type: physicochemical; details: 40 and 50% w/w IMC in PVP/VA, annealing vs scanning method
Procedure: Solute-polymer mixtures of desired concentrations were prepared by weighing the components. […] In a typical procedure, 0.5-1 g solute/polymer powder was milled at 10 Hz. Each cycle of milling was 2 min, followed by a 2 min cool-down. The cycle was repeated to achieve a desired milling time (2-60 min).
For annealing, 5-10 mg of sample was packed into a Tzero hermetic aluminum pan with three pin holes made in the lid to allow the escape of moisture and held isothermally at a desired temperature for as long as 600 minutes. Shorter annealing time was used if the system could apparently achieve equilibrium sooner.
Differential scanning calorimetry (DSC) was conducted using a TA Instruments DSC Q2000 at 10° C./min to determine whether residual crystals remain after annealing, i.e. whether a dissolution endotherm can be identified.

[3] = Flory-Huggins fit of solute activity from annealing-method solubility data (interaction parameter χ); type: physicochemical; details: polymer PVP K-12, Flory-Huggins fit
Procedure: The solute activity a1 of the drug in the saturated solution was calculated from the solubility of the crystalline drug in the polymer as follows:
In a1=(ΔHm/R)(1/Tm−1/T) (1)
where Tm is the melting point of the pure drug, ΔHm is its molar heat of melting, and T is the temperature at which the drug's solubility is measured (or its depressed melting point). […] According to the Flory-Huggins theory, the solute activity is given by
where v1 and v2 are the solute (drug) and solvent (polymer) volume fractions (v1+v2=1), x is the molar volume ratio of the polymer and the drug, and χ□ is the solute-solvent interaction parameter.
To the extent the reasonable fitting in FIG. 4 justifies the use of the Flory-Huggins model, the interaction parameter χ (equation 1) could be obtained.

- solution temperature below that obtained with the scanning method [2]: approximately 7 °C
- solute-solvent interaction parameter χ as determined with the method of the present invention [3]: −8.2 ± 0.6
Compound: COc1ccc2c(c1)c(CC(=O)O)c(C)n2C(=O)c1ccc(Cl)cc1 [IMC, indomethacin]
- solute-solvent interaction parameter χ as determined by Marsac et al. [1]: −0.82
